Measurements published in PubChem BioAssay AID256 (DTP/NCI, 2004).
Values joined by “and” are separate entries in the source; they are usually repeats but may differ in a detail not shown here. Equal entries are not always repeated. Toxic doses and inconclusive results are not listed.

System: CD2F1 mice, L1210 leukemia ip, survival T/C
Experiment: NCI In Vivo Anticancer Drug Screen. Data for tumor model L1210 Leukemia (intraperitoneal) in CD2F1 (CDF1) mice
Settings: higher = longer survival
Procedure, shortened: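 Vehicle-treated tumor-bearing mice served as controls (C) for compound-treated mice (T). Reported figure is T divided by C.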

[1] = endpoint: mean survival time, dose: 100.0 mg/kg/injection, schedule: Q04DX003 (ip), vehicle: saline with Tween-80
[2] = endpoint: mean survival time, dose: 200.0 mg/kg/injection, schedule: Q04DX003 (ip), vehicle: saline with Tween-80
[3] = endpoint: mean survival time, dose: 400.0 mg/kg/injection, schedule: Q04DX003 (ip), vehicle: saline with Tween-80

Compound: CC1CCC(NC(=O)N(CCCl)N=O)CC1 (stereo not drawn)
- T/C (endpoint: mean survival time, dose: 0.5 mg/kg/injection, schedule: Q01DX009 (ip), vehicle: saline + alcohol): 96 % of control
- T/C (endpoint: mean survival time, dose: 1.0 mg/kg/injection, schedule: Q01DX009 (ip), vehicle: saline + alcohol): 109 % of control
- T/C (endpoint: mean survival time, dose: 2.0 mg/kg/injection, schedule: Q01DX009 (ip), vehicle: saline + alcohol): 109 % of control
- T/C (endpoint: mean survival time, dose: 3.12 mg/kg/injection, schedule: Q01DX001 (ip), vehicle: other): 105 % of control and 110 % of control
- T/C (endpoint: mean survival time, dose: 3.13 mg/kg/injection, schedule: Q01DX001 (ip), vehicle: saline with Tween-80): 103 % of control
- T/C (endpoint: mean survival time, dose: 4.0 mg/kg/injection, schedule: Q01DX001 (ip), vehicle: other): 107 % of control
- T/C (endpoint: mean survival time, dose: 4.0 mg/kg/injection, schedule: Q01DX001 (ip), vehicle: saline + alcohol): 104 % of control
- T/C (endpoint: mean survival time, dose: 4.0 mg/kg/injection, schedule: Q01DX009 (ip), vehicle: saline + alcohol): 151 % of control and 185 % of control
- T/C (endpoint: mean survival time, dose: 5.0 mg/kg/injection, schedule: Q04DX003 (ip), vehicle: other): 192 % of control
- T/C (endpoint: mean survival time, dose: 6.25 mg/kg/injection, schedule: Q01DX001 (ip), vehicle: saline + alcohol): 98 % of control
- T/C (endpoint: mean survival time, dose: 6.25 mg/kg/injection, schedule: Q01DX001 (ip), vehicle: saline with Tween-80): 114 % of control
- T/C (endpoint: mean survival time, dose: 8.0 mg/kg/injection, schedule: Q01DX009 (ip), vehicle: saline + alcohol): 175 % of control and 229 % of control
- T/C (endpoint: mean survival time, dose: 8.0 mg/kg/injection, schedule: Q08DX002 (ip), vehicle: saline + alcohol): 206 % of control
- T/C (endpoint: mean survival time, dose: 10.0 mg/kg/injection, schedule: Q04DX003 (ip), vehicle: other): 371 % of control
- T/C (endpoint: mean survival time, dose: 12.5 mg/kg/injection, schedule: Q01DX001 (ip), vehicle: distilled water + Tween-80): 340 % of control
- T/C (endpoint: mean survival time, dose: 12.5 mg/kg/injection, schedule: Q01DX001 (ip), vehicle: saline + alcohol): 104 % of control
- T/C (endpoint: mean survival time, dose: 16.0 mg/kg/injection, schedule: Q01DX001 (ip), vehicle: other): 283 % of control
- T/C (endpoint: mean survival time, dose: 16.0 mg/kg/injection, schedule: Q01DX001 (ip), vehicle: saline + alcohol): 120 % of control
- T/C (endpoint: mean survival time, dose: 16.0 mg/kg/injection, schedule: Q01DX009 (ip), vehicle: saline + alcohol): 207 % of control
- T/C (endpoint: mean survival time, dose: 16.0 mg/kg/injection, schedule: Q08DX002 (ip), vehicle: saline + alcohol): 289 % of control
- T/C (endpoint: mean survival time, dose: 20.0 mg/kg/injection, schedule: Q04DX003 (ip), vehicle: other): 392 % of control
- T/C (endpoint: mean survival time, dose: 24.0 mg/kg/injection, schedule: Q01DX009 (ip), vehicle: saline + alcohol): 107 % of control
- T/C (endpoint: mean survival time, dose: 24.0 mg/kg/injection, schedule: Q08DX002 (ip), vehicle: saline + alcohol): 550 % of control
- T/C (endpoint: mean survival time, dose: 25.0 mg/kg/injection, schedule: Q01DX001 (ip), vehicle: distilled water + Tween-80): 406 % of control
- T/C (endpoint: mean survival time, dose: 25.0 mg/kg/injection, schedule: Q01DX001 (ip), vehicle: saline + alcohol): 95 % of control
- T/C (endpoint: mean survival time, dose: 25.0 mg/kg/injection, schedule: Q01DX001 (ip), vehicle: saline with Tween-80): 393 % of control
- T/C (endpoint: mean survival time, dose: 27.0 mg/kg/injection, schedule: Q01DX001 (ip), vehicle: saline with Tween-80): 813 % of control
- T/C (endpoint: mean survival time, dose: 32.0 mg/kg/injection, schedule: Q01DX001 (ip), vehicle: other): 357 % of control
- T/C (endpoint: mean survival time, dose: 32.0 mg/kg/injection, schedule: Q01DX001 (ip), vehicle: saline + alcohol): 451 % of control
- T/C (endpoint: mean survival time, dose: 32.0 mg/kg/injection, schedule: Q01DX009 (ip), vehicle: saline + alcohol): 256 % of control and 103 % of control
- T/C (endpoint: mean survival time, dose: 40.0 mg/kg/injection, schedule: Q01DX001 (ip), vehicle: saline with Tween-80): 555 % of control
- T/C (endpoint: mean survival time, dose: 48.0 mg/kg/injection, schedule: Q01DX009 (ip), vehicle: saline + alcohol): 96 % of control
- T/C (endpoint: mean survival time, dose: 50.0 mg/kg/injection, schedule: Q01DX001 (ip), vehicle: saline + alcohol): 158 % of control
- T/C (endpoint: mean survival time, dose: 50.0 mg/kg/injection, schedule: Q01DX001 (ip), vehicle: saline with Tween-80): 213 % of control and 473 % of control
- T/C (endpoint: mean survival time, dose: 64.0 mg/kg/injection, schedule: Q01DX001 (ip), vehicle: other): 204 % of control
- T/C (endpoint: mean survival time, dose: 64.0 mg/kg/injection, schedule: Q01DX009 (ip), vehicle: saline + alcohol): 86 % of control
- T/C (endpoint: median survival time, dose: 3.12 mg/kg/injection, schedule: Q01DX001 (ip), vehicle: other): 121 % of control and 110 % of control
- T/C (endpoint: median survival time, dose: 3.12 mg/kg/injection, schedule: Q01DX001 (ip), vehicle: saline): 98 % of control and 101 % of control
- T/C (endpoint: median survival time, dose: 6.25 mg/kg/injection, schedule: Q01DX001 (ip), vehicle: other): 158 % of control
- T/C (endpoint: median survival time, dose: 6.25 mg/kg/injection, schedule: Q01DX001 (ip), vehicle: saline): 98 % of control and 103 % of control
- T/C (endpoint: median survival time, dose: 9.0 mg/kg/injection, schedule: Q04DX002 (ip), vehicle: saline + Tween-80 + alcohol): 180 % of control
- T/C (endpoint: median survival time, dose: 12.5 mg/kg/injection, schedule: Q01DX001 (ip), vehicle: other): 159 % of control and 297 % of control
- T/C (endpoint: median survival time, dose: 12.5 mg/kg/injection, schedule: Q01DX001 (ip), vehicle: saline): 103 % of control
- T/C (endpoint: median survival time, dose: 14.4 mg/kg/injection, schedule: Q01DX001 (ip), vehicle: saline + alcohol): 718 % of control
- T/C (endpoint: median survival time, dose: 14.4 mg/kg/injection, schedule: Q01DX001 (ip), vehicle: saline with Tween-80): 121 % of control
- T/C (endpoint: median survival time, dose: 14.4 mg/kg/injection, schedule: Q04DX002 (ip), vehicle: saline + alcohol): 622 % of control
- T/C (endpoint: median survival time, dose: 15.0 mg/kg/injection, schedule: Q04DX002 (ip), vehicle: saline + Tween-80 + alcohol): 351 % of control
- T/C (endpoint: median survival time, dose: 24.0 mg/kg/injection, schedule: Q01DX001 (ip), vehicle: other): 581 % of control
- T/C (endpoint: median survival time, dose: 24.0 mg/kg/injection, schedule: Q01DX001 (ip), vehicle: saline + alcohol): 718 % of control
- T/C (endpoint: median survival time, dose: 24.0 mg/kg/injection, schedule: Q04DX002 (ip), vehicle: saline + alcohol): 623 % of control
- T/C (endpoint: median survival time, dose: 25.0 mg/kg/injection, schedule: Q01DX001 (ip), vehicle: other): 297 % of control and 340 % of control
- T/C (endpoint: median survival time, dose: 25.0 mg/kg/injection, schedule: Q04DX002 (ip), vehicle: saline + Tween-80 + alcohol): 244 % of control
- T/C (endpoint: median survival time, dose: 36.0 mg/kg/injection, schedule: Q01DX001 (ip), vehicle: other): 580 % of control
- T/C (endpoint: median survival time, dose: 40.0 mg/kg/injection, schedule: Q01DX001 (ip), vehicle: saline + alcohol): 720 % of control
- T/C (endpoint: median survival time, dose: 40.0 mg/kg/injection, schedule: Q01DX001 (ip), vehicle: saline with Tween-80): 157 % of control
- T/C (endpoint: median survival time, dose: 40.0 mg/kg/injection, schedule: Q01DX001 (oral), vehicle: saline with Tween-80): 393 % of control and 590 % of control and 983 % of control
- T/C (endpoint: median survival time, dose: 40.0 mg/kg/injection, schedule: Q04DX002 (ip), vehicle: saline + alcohol): 286 % of control
- T/C (endpoint: median survival time, dose: 42.0 mg/kg/injection, schedule: Q04DX002 (ip), vehicle: saline + Tween-80 + alcohol): 170 % of control
- T/C (endpoint: median survival time, dose: 50.0 mg/kg/injection, schedule: Q01DX001 (ip), vehicle: other): 158 % of control and 193 % of control
- T/C (endpoint: median survival time, dose: 50.0 mg/kg/injection, schedule: Q01DX001 (oral), vehicle: saline with Tween-80): 193 % of control and 983 % of control (2×)
- T/C (endpoint: median survival time, dose: 60.0 mg/kg/injection, schedule: Q01DX001 (ip), vehicle: other): 119 % of control
- T/C (endpoint: median survival time, dose: 60.0 mg/kg/injection, schedule: Q01DX001 (oral), vehicle: saline with Tween-80): 185 % of control and 983 % of control (2×)
- T/C (endpoint: median survival time, dose: 66.7 mg/kg/injection, schedule: Q01DX001 (ip), vehicle: saline + alcohol): 328 % of control
- T/C (endpoint: median survival time, dose: 66.7 mg/kg/injection, schedule: Q01DX001 (ip), vehicle: saline with Tween-80): 463 % of control
- T/C (endpoint: median survival time, dose: 100.0 mg/kg/injection, schedule: Q01DX001 (ip), vehicle: other): 116 % of control

Compound: CC/S(=N\S(=O)(=O)c1ccc(C)cc1)c1ccccc1 (stereo not drawn)
- T/C [1]: 104 % of control
- T/C [2]: 108 % of control
- T/C [3]: 98 % of control

Compound: CC(=O)Cc1ccc(C)cc1
- T/C [1]: 97 % of control
- T/C [2]: 93 % of control
- T/C [3]: 104 % of control

Compound: CCCCS(=O)(=O)c1ccc(Cl)cc1
- T/C [1]: 96 % of control
- T/C [2]: 100 % of control
- T/C [3]: 105 % of control

Compound: O=C(SCN1CCCCC1)c1ccccc1
- T/C (endpoint: mean survival time, dose: 50.0 mg/kg/injection, schedule: Q01DX009 (ip), vehicle: saline with Tween-80): 98 % of control
- T/C (endpoint: mean survival time, dose: 100.0 mg/kg/injection, schedule: Q01DX009 (ip), vehicle: saline with Tween-80): 103 % of control
- T/C [1]: 97 % of control
- T/C [2]: 95 % of control
